Results as given in PMC7764606 (Cancers, 2020).

Columns and labels:
[1] = system: T1, recombinant AKR1B10; experiment: Reduction of Dau by recombinant AKR1B10 (UHPLC detection of Dau-ol); type: biochemical, Human; conditions: Dau 500 µM, relative to DMSO
T1 construct: made in house; host or cells: Escherichia coli
Method: Human recombinant CREs (CBR1, AKR1A1, 1B1, 1B10, 7A2, and 1C3) were produced by an Escherichia coli expression system as per methods described previously. For the inhibitory assay, each recombinant enzyme, CBR1 (1 µg), AKR1A1 (1 µg), AKR1B1 (5 µg), AKR1B10 (5 µg), AKR7A2 (3 µg), or AKR1C3 (1.5 µg) was incubated with BTK inhibitors at different concentrations (10 and 50 µM) and the substrate Dau (500 µM). For analysis using the Lineweaver-Burk plot, 1.5 µg of recombinant AKR1C3 was incubated with DMSO or BTK inhibitors (1, 5, and 10 µM) and Dau (200, 400, 600, 800, 1000, and 2000 µM). […] The incubations and further metabolite detection were further performed by using ultra-high-performance liquid chromatography (UHPLC) as per methods described previously.

[2] = system: T2, AKR1C3 in HCT116-C3 cells; experiment: Dau metabolism to Dau-ol in HCT116 cells transiently overexpressing AKR1C3; type: cell-based, human; conditions: 5 h
T2 construct: expressed in transfected cells; host or cells: HCT116
Method: (§1) HCT116 cells were seeded (1.25 × 10^5 cells/well) in 24-well plates and cultured for 24 h. For the transient expression of the recombinant human AKR1C3, the cells were transfected with a pCI_AKR1C3 or empty pCI plasmid as control (previously described in a study by Hofman et al.) according to the manufacturer’s instructions (jetPRIME® Transfection Reagent; Polyplus Transfection®, Illkirch, France). For each 24-well plate, a mixture of 0.75 µL of the jetPRIME® Transfection Reagent and 0.25 µg of plasmid was incubated for 10 min at room temperature. Then, polyplexes were added to the HCT116 cells with 0.5 mL of fresh DMEM supplemented with 10% FBS and incubated for 24 h (37 °C, 5% CO2). The expression of recombinant AKR1C3 was verified by western blotting as per methods described previously.
(§2) After transfection of HCT116 cells or seeding of A549 cells (25 × 10^3 cells/well) in 24-well plates for 24 h, the medium was harvested and replaced with DMEM supplemented with 10% FBS containing 1 µM daunorubicin, with or without increasing concentrations (1, 5, and 10 μM) of BTK inhibitors. Cells were incubated (37 °C, 5% CO2) for 2.5 and 5 h (transfected HCT116) or only 5 h (A549). Then, the medium was collected and the cells were lysed in lysis buffer (25 mM Tris, 150 mM NaCl, and 1% Triton X-100, pH 7.8) for 15 min at room temperature. The collected medium was combined with cell lysate for further extraction and analysis of metabolites, as per methods described previously.

[3] = system: A549 cells; experiment: Intracellular metabolism of Dau in A549 cells; type: cell-based, human; conditions: 5 h
Method: as §2

[4] = system: HCT116-EV cells; experiment: MTT cell viability, HCT116-EV cells (incl. Chou-Talalay analysis); type: cell-based, human
Method: as §1
Twenty-four hours prior to the experiment, transfected HCT116 cells (8 × 10^3 cells/well) or A549 cells (5 × 10^3 cells/well) were seeded in 96-well plates. The cell culture medium was replaced with fresh medium containing increasing amounts of Dau (final concentrations: 0.01, 0.05, 0.1, 0.25, 0.5, 0.75, 1, and 10 µM) with or without BTK inhibitors (final concentrations: 1, 5, and 10 µM). After 72 h of incubation under standard conditions (37 °C, 5% CO2), cell viability was assessed by MTT (Sigma-Aldrich, Prague, Czech Republic) assay. For this, 50 µL of the MTT solution (3 mg/mL) was added to each well and incubated for 30 min. The supernatant was collected, and the cell monolayers were dissolved in 100 µL of DMSO. The absorbance was measured at 570 and 690 nm by a microplate reader Infinite M200 (Tecan, Salzburg, Austria), and the background values at 690 nm were subtracted from the absorbance obtained at 570 nm. The half-maximal inhibitory concentrations (IC50) were calculated using GraphPad Prism 8.1.2. The drug combination pharmacodynamics were determined by the Chou-Talalay method using the CompuSyn ver. 3.0.1 software (ComboSyn Inc., Paramus, NJ, USA).

[5] = system: AKR1C3 expression in A549 cells; experiment: AKR1C3 protein levels in A549 cells by western blotting; type: cell-based, human; conditions: 1, 5 and 10 µM, 72 h, western blot relative to β-actin
Method: A549 cells were incubated with DMSO or BTK inhibitors (1, 5, and 10 µM) for 72 h, and then total protein was extracted for analysis of AKR1C3 expression by western blotting (WB) as per methods described previously. A representative WB is shown for IBR (A) and ACA (B) incubations, and bars represent AKR1C3 protein levels as determined by densitometry relative to β-actin (n = 3, mean ± SD). Uncropped images from WB are available in Figure S1 in the Supplementary Materials. On the other hand, HCT116-EV and HCT116-C3 cells were treated with increasing concentrations of IBR (C) and ACA (D) for 72 h, and their viability was assessed by MTT assay. Graphs represent a comparison of the dose-response curves for percentages of cell viability in each cell line (n = 6, mean ± SD).

[6] = recommended dose 200 mg/day, cited from earlier work
[7] = BTK-inhibitor 5 µM + Dau 0.25 µM
[8] = BTK-inhibitor 5 µM + Dau 0.50 µM
[9] = BTK-inhibitor 5 µM + Dau 0.75 µM
[10] = BTK-inhibitor 5 µM + Dau 1.00 µM
[11] = BTK-inhibitor 10 µM + Dau 0.25 µM
[12] = BTK-inhibitor 10 µM + Dau 0.50 µM
[13] = BTK-inhibitor 10 µM + Dau 0.75 µM
[14] = BTK-inhibitor 10 µM + Dau 1.00 µM

CC#CC(=O)N1CCC[C@H]1c1nc(-c2ccc(C(=O)Nc3ccccn3)cc2)c2c(N)nccn12 [Acalabrutinib, acalabrutinib]
inhibition of AKR1B10 activity (Dau reduction) ([1]; 10 µM BTK inhibitor): did not show significant inhibition | inhibition of AKR1B10 activity (Dau reduction) ([1]; 50 µM BTK inhibitor): 9.36% ± 2.53% | decrease in AKR1C3 activity (Dau to Dau-ol) ([2]; 1 µM BTK inhibitor + 1 µM Dau): 31.96% ± 13.51% | decrease in AKR1C3 activity (Dau to Dau-ol) ([2]; 5 µM BTK inhibitor + 1 µM Dau): 67.15% ± 10.35% | decrease in AKR1C3 activity (Dau to Dau-ol) ([2]; 10 µM BTK inhibitor + 1 µM Dau): 65.56% ± 1.53% | reduction of intracellular metabolism of Dau ([3]; 1 µM BTK inhibitor + 1 µM Dau): 12.13% ± 5.19% | reduction of intracellular metabolism of Dau ([3]; 5 µM BTK inhibitor + 1 µM Dau): 34.32% ± 7.09% | reduction of intracellular metabolism of Dau ([3]; 10 µM BTK inhibitor + 1 µM Dau): 44.24% ± 9.06% | Combination index (CI) [4, 7]: 0.64 ± 0.07 | Dose reduction index for Dau [4, 7]: 1.59 ± 0.16 | Fraction affected (Fa %) [4, 7]: 57.98 ± 10.7% | Combination index (CI) [4, 8]: 0.80 ± 0.02 | Dose reduction index for Dau [4, 8]: 1.26 ± 0.03 | Fraction affected (Fa %) [4, 8]: 76.14 ± 4.55% | Combination index (CI) [4, 9]: 0.73 ± 0.05 | Dose reduction index for Dau [4, 9]: 1.38 ± 0.09 | Fraction affected (Fa %) [4, 9]: 88.86 ± 2.18% | Combination index (CI) [4, 10]: 0.93 ± 0.17 | Dose reduction index for Dau [4, 10]: 1.10 ± 0.20 | Fraction affected (Fa %) [4, 10]: 89.81 ± 0.07% | Combination index (CI) [4, 11]: 0.64 ± 0.01 | Dose reduction index for Dau [4, 11]: 1.60 ± 0.00 | Fraction affected (Fa %) [4, 11]: 58.22 ± 6.27% | Combination index (CI) [4, 12]: 0.68 ± 0.05 | Dose reduction index for Dau [4, 12]: 1.48 ± 0.11 | Fraction affected (Fa %) [4, 12]: 81.17 ± 2.72% | Combination index (CI) [4, 13]: 0.62 ± 0.12 | Dose reduction index for Dau [4, 13]: 1.65 ± 0.31 | Fraction affected (Fa %) [4, 13]: 91.66 ± 0.08% | Combination index (CI) [4, 14]: 0.88 ± 0.12 | Dose reduction index for Dau [4, 14]: 1.15 ± 0.15 | Fraction affected (Fa %) [4, 14]: 90.59 ± 0.95% | IC50 ([4]; Homo sapiens, 72 h MTT, read-out: IC50 of BTK inhibitor alone (cell viability)): 33 µM | effect on expression (protein levels) of AKR1C3 [5]: negligible or absence of effects | approximate Cmax [6]: ~825 ng/mL | Cmax ([6]; read-out: approximate Cmax): ~1800 nM
